{"source": "patent US6800482B2", "about": "“Cultured cells of Australian laurel, Pittosporaceae and a method for culturing tissues by using said cultured cells” (Hiroshima University, priority 2001, dated 2004)", "assay_type_in_all_cases": "cell-based", "key": {"[1]": {"tested_on": "leaf of the Australian laurel, Pittosporaceae", "assay": "Redifferentiation from the leaf in WP culture medium (Example 3, Table 2)", "conditions": "NAA 0 μM, 22 to 28° C., bright place", "description": "(§1) A WP culture medium or a MS culture medium was used as a fundamental culture medium. As a carbon source was used 1% sucrose, and 0.3% Gellan-Gum (Trade name) was used as a gelling agent. An Australian laurel, Pittosporaceae seed was treated with 70% ethanol for 1 hour with 2.5% sodium hypochlorite for 1 hour, and sterilized by washing it with sterilized water. After water was fed to the seed 2 night or more at 4° C. in dark, it was planted in the culture medium. After germination, a seedling of four weeks age was used for a tissue culturing. Cut pieces, 1 mm thick, were prepared from a leave, a stem and a roof of the living matter, and planted and cultured in the same culture medium as mentioned above but containing naphthaleneacetic acid and thidiazuron (TDZ) as a hormon. […] About 2 months after the planting, a shoot was cut out from the polyblast, and indoleacetic acid was applied to a cut portion of the shoot. The shoot treated with indoleacetic acid was inserted into a solid culture medium or a mixed soil of perlite and vermiculite containing a culture medium. The shoot was cultured and rooted.\nRedifferentiation from the leaf and the stem of the Australian laurel, Pittosporaceae was examined. The WP culture medium was used as a culture medium. A culturing temperature was set in a range of 22 to 28° C. The Australian laurel, Pittosporaceae was cultured in a bright place. […]"}, "[2]": {"tested_on": "cut pieces from the stem of Australian laurel, Pittosporaceae", "assay": "Tissue culture of cut pieces in culture medium containing thidiazuron and naphthaleneacetic acid (Example 1, Table 1)", "conditions": "for Numbers of cut pieces leading to stem or leaf/10 cut pieces: NAA 0 μM, WP culture medium, 6 weeks", "description": "as §1\nCut pieces from the stem was cultured in the WP culture medium added with thidiazuron and naphthaleneacetic acid for 6 weeks, and observation results thereof are shown in Table 1."}, "[3]": {"tested_on": "Embryo (text: stem) of the Australian laurel, Pittosporaceae", "assay": "Redifferentiation, column Embryo, in WP culture medium (Example 3, Table 2)", "conditions": "for Redifferentiation Embryo: NAA 0 μM, WP culture medium, 22 to 28° C., bright place", "description": "as §1\nRedifferentiation from the leaf and the stem of the Australian laurel, Pittosporaceae was examined. The WP culture medium was used as a culture medium. A culturing temperature was set in a range of 22 to 28° C. The Australian laurel, Pittosporaceae was cultured in a bright place. The planting condition and the other culturing conditions were the same as those in Example 1."}}, "data": [{"smiles": "O=C(Nc1ccccc1)Nc1cnns1", "note": "[TDZ, thidiazuron]", "values": [{"measurement": "Redifferentiation Leaf", "setting": "[1]; TDZ 10^4 nM", "result": 0, "unit": "%"}, {"measurement": "Redifferentiation Leaf", "setting": "[1]; TDZ 10^5 nM", "result": 0, "unit": "%"}, {"measurement": "Numbers of cut pieces leading to stem or leaf/10 cut pieces", "setting": "[2]; TDZ 0.1 μm", "result": "0 /10 cut pieces"}, {"measurement": "Numbers of cut pieces leading to stem or leaf/10 cut pieces", "setting": "[2]; TDZ 10 μm", "result": "0 /10 cut pieces"}, {"measurement": "Redifferentiation", "setting": "[2]; concentration of thidiazuron not less than 10 μM, culture medium containing naphthaleneacetic acid", "result": "redifferentiation was confirmed"}, {"measurement": "Redifferentiation Embryo", "setting": "[3]; TDZ 10^4 nM", "result": 5.0, "unit": "%"}, {"measurement": "Redifferentiation Embryo", "setting": "[3]; TDZ 10^5 nM", "result": 10.0, "unit": "%"}, {"measurement": "Redifferentiation percentages", "setting": "[3]; cultures containing 10^4 to 10^5 nM thidiazuron", "result": "considerably high redifferentiation percentages"}]}]}
